Measurements reported in publication PMC9175492 (Molecular pharmaceutics, 2022).
Numbered stars: 1 amine (or outer) side, 2 acyl side, 3 side chain; on linkers, the order of the positions; unused ones are H or OH. Bridge positions count the residues as written; N and C are the ends. Square brackets hold non-standard residues; d marks the D form. Peptide text beside a SMILES is read from it. I, II: the chains in the order shown. X2 = NC(=O)[C@H](CCCCNC(=O)COCCOCCN[*:1])N[*:2]; 2Nal = N[C@@H](Cc1ccc2ccccc2c1)C(=O)O; Bta = N[C@@H](Cc1csc2ccccc12)C(=O)O

Assays:
[1] = system: intracellular Keap1-Nrf2 interaction, ARE reporter-HepG2 cells; test: ARE luciferase reporter assay; type: cell-based; settings: 18 h, 0% FBS, n = 5; for Increase of luciferase activity: 0.31 μM; for Maximal induction of luciferase expression: highest concentration tested (5 μM)
[2] = system: HeLa (human cervical cancer) cells; settings: 10% fetal bovine serum; cited from earlier work
[3] = system: HeLa cells; test: Apparent endosomal escape efficiency; type: cell-based, human; settings: reference line, 10% or 1% FBS; defined as 100%
[4] = system: HeLa cells; test: MTT cell viability assay; type: cell-based, human; settings: 72 h, DMEM 10% FBS
[5] = ratio of cytosolic versus extracellular concentration; cited from earlier work

In the case of CC(C)C[C@@H]1NC(=O)[C@H](Cc2ccccc2)NC(=O)[C@H](CCC(=O)O)NC(=O)CNC(=O)[C@H]([C@@H](C)O)NC(=O)[C@H](CCC(=O)O)NC(=O)[C@@H]2CCCN2C(=O)[C@H](CC(=O)O)NC(=O)[C@H](CC(C)C)NC(=O)[C@H](CCC(=O)NCCOCCOCC(=O)NCCCC[C@H](NC(=O)CC[C@@H]2NC(=O)[C@@H](CCCNC(=N)N)NC(=O)[C@H](CCCNC(=N)N)NC(=O)[C@@H](CCCNC(=N)N)NC(=O)[C@H](CCCNC(=N)N)NC(=O)[C@H](Cc3ccc4ccccc4c3)NC(=O)[C@@H](Cc3ccccc3)NC(=O)[C@H](Cc3ccccc3)NC2=O)C(N)=O)NC(=O)CNC1=O [CPP12-P1] (I: cyclo(FLGELDPETGE) / II: cyclo(F[dF][2Nal]R[dR]R[dR]E); linker I:4-II:8 via X2), the “Increase of luciferase activity” value [1] is reported as “did not have significant effect” and the “Maximal induction of luciferase expression” value [1] is reported as “three- to four-fold”.

With CC(C)C[C@@H]1NC(=O)[C@H](Cc2ccccc2)NC(=O)[C@H](CCC(=O)O)NC(=O)CNC(=O)[C@H]([C@@H](C)O)NC(=O)[C@H](CCC(=O)O)NC(=O)[C@@H]2CCCN2C(=O)[C@H](CC(=O)O)NC(=O)[C@H](CC(C)C)NC(=O)[C@H](CCC(=O)NCCOCCOCC(=O)NCCCC[C@H](NC(=O)CC[C@@H]2NC(=O)[C@@H](CCCNC(=N)N)NC(=O)[C@H](CCCNC(=N)N)NC(=O)[C@@H](CCCNC(=N)N)NC(=O)[C@H](CCCNC(=N)N)NC(=O)[C@H](Cc3csc4ccccc34)NC(=O)[C@@H](Cc3ccccc3)NC(=O)[C@H](Cc3ccccc3)NC2=O)C(N)=O)NC(=O)CNC1=O [CPP12-2-P1] (I: cyclo(FLGELDPETGE) / II: cyclo(F[dF][Bta]R[dR]R[dR]E); linker I:4-II:8 via X2) the “Increase of luciferase activity” value [1] was ~ 2 fold and the “Maximal induction of luciferase expression” value [1] was “three- to four-fold”.

In the case of CC(C)C[C@@H]1NC(=O)[C@H](Cc2ccccc2)NC(=O)[C@H](CCC(=O)O)NC(=O)CNC(=O)[C@H]([C@@H](C)O)NC(=O)[C@H](CCC(=O)O)NC(=O)[C@@H]2CCCN2C(=O)[C@H](CC(=O)O)NC(=O)[C@H](CC(C)C)NC(=O)[C@H](CCC(N)=O)NC(=O)CNC1=O [Peptide P1], the “Increase in luciferase activity” value ([1]; up to 5 μM) is reported as “did not result in significant increase”.

In the case of N=C(N)NCCC[C@@H]1NC(=O)[C@H](Cc2ccc3ccccc3c2)NC(=O)[C@@H](Cc2ccccc2)NC(=O)[C@H](Cc2ccccc2)NC(=O)[C@H](CCC(N)=O)NC(=O)[C@@H](CCCNC(=N)N)NC(=O)[C@H](CCCNC(=N)N)NC(=O)[C@@H](CCCNC(=N)N)NC1=O [CPP12, cyclo(Phe-D-Phe-Nal-Arg-D-Arg-Arg-D-Arg-Gln)] (cyclo([2Nal]R[dR]R[dR]QF[dF])), the “Decrease of cytosolic entry efficiency in the presence of 10% FBS” value [2] is listed as 25 fold, the “Apparent Endosomal Escape Efficiency (γ, %)” value [3] is listed as 100% and the “Loss of viability of HeLa cells (MTT)” value ([4]; at ⩾550 μM concentration (so in the source)) is listed as ~ 40%. For the same compound, the “Viability of HeLa cells (MTT)” value ([4]; up to 25 μM) was “did not reduce the viability” and the Cytosolic entry efficiency [5] was 120%.
